Numbered stars: 1 amine (or outer) side, 2 acyl side, 3 side chain; on linkers, the order of the positions; unused ones are H or OH. Bridge positions count the residues as written; N and C are the ends. Square brackets hold non-standard residues; d marks the D form. Peptide text beside a SMILES is read from it. * marks the point of attachment. Phe(3-CF3) = N[C@@H](Cc1cccc(C(F)(F)F)c1)C(=O)O; Phe(4-CONH2) = NC(=O)c1ccc(C[C@H](N)C(=O)O)cc1; Phe(4-COOH) = N[C@@H](Cc1ccc(C(=O)O)cc1)C(=O)O; Bip = N[C@@H](Cc1ccc(-c2ccccc2)cc1)C(=O)O; NH(CH2)14COOH = O=C(O)CCCCCCCCCCCCCCN*; Phe(3-Me) = Cc1cccc(C[C@H](N)C(=O)O)c1; γGlu = O=C(O)[C@H](CCC(=O)[*:2])N[*:1]; βAsp = O=C(O)[C@H](CC(=O)[*:2])N[*:1]; NH(CH2)12COOH = O=C(O)CCCCCCCCCCCCN*; Val(3-OH) = CC(C)(O)[C@H](N)C(=O)O; Cha = N[C@@H](CC1CCCCC1)C(=O)O; PEG4 = NCCOCCOCCOCCOCCC(=O)O; Carboxymethyl = O=C(O)C*; Orn = NCCC[C@H](N)C(=O)O; Aun = NCCCCCCCCCCC(=O)O; Dab = NCC[C@H](N)C(=O)O; Nva = CCC[C@H](N)C(=O)O; Abu = CC[C@H](N)C(=O)O; AEEA = NCCOCCOCC(=O)O

As a reminder, the IC50 is the concentration needed to halve the response being measured.

T1 sequence (Q15116 25-288): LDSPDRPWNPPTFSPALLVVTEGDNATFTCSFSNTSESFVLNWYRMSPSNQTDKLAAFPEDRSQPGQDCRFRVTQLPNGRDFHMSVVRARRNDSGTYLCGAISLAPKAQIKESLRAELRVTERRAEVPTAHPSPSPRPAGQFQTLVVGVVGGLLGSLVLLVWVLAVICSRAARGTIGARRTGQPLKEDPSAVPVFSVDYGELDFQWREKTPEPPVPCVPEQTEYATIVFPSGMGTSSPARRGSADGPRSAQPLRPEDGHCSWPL

This assay addresses T1, PD-1/PD-L1 interaction (PE-labeled human PD-L1-Ig binding to Jurkat cell line over-expressing human PD-1) (Homo sapiens, UniProt Q15116).
T1 construct: expressed in transfected cells; host or cells: Jurkat
The experiment in a line: Jurkat-PD-1 Cell Binding High-Content Screening Assay (CBA). The assay is classed as cell-based. Particulars: Jurkat cell line over-expressing human PD-1; PE-labeled PD-L1-Ig 20 nM final; read-out: Jurkat hPD1-PDL1 IC50. The method in brief:
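Jurkat-hPD-1 cells, DMEM/10% FCS; cpd 2 h 37° C; PE-PD-L1-Ig 20 nM final, 1 h; 4% PFA fix + Hoechst 33342, 3× dPBS wash; high-content imaging read-out.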
For `Cc1cccc(C[C@@H]2NC(=O)[C@H](CC(=O)O)NC(=O)[C@H](Cc3ccc(OCC(=O)O)cc3)NC(=O)[C@H](Cc3ccc(C(N)=O)cc3)NC(=O)CSC[C@@H](C(=O)N[C@@H](CCN)C(=O)NCCCCCCCCCCC(=O)O)NC(=O)[C@H]([C@@H](C)O)NC(=O)[C@H](C(C)C)NC(=O)[C@H](CC3CCCCC3)NC(=O)[C@H](CCN)NC(=O)[C@@H](CC(C)C)NC(=O)[C@H](CCCN)NC(=O)[C@H](Cc3ccc(OCC(=O)O)cc3)NC(=O)[C@H](Cc3ccc(-c4ccccc4)cc3)NC(=O)[C@H](Cc3ccc(OCC(=O)O)cc3)NC2=O)c1` [Compound 2925] ({CH2CO}-[Phe(4-CONH2)]Y(Carboxymethyl)D[Phe(3-Me)]Y(Carboxymethyl)[Bip]Y(Carboxymethyl)[Orn][dL][Dab][Cha]VTC[Dab][Aun]-OH; thioether N-14), the IC50 was 36.6 nM.

`CC[C@@H]1NC(=O)CSC[C@@H](C(=O)N[C@@H](CCN)C(=O)NCCOCCOCCOCCOCCC(=O)NCCCCCCCCCCCCC(=O)O)NC(=O)[C@H](Cc2c[nH]cn2)NC(=O)[C@H](C(C)(C)O)NC(=O)[C@H](CC2CCCCC2)NC(=O)[C@H](CCN)NC(=O)[C@@H](CC(C)C)NC(=O)[C@H](CCCN)NC(=O)[C@H](Cc2ccc(C(=O)O)cc2)NC(=O)[C@H](Cc2ccc(-c3ccccc3)cc2)NC(=O)[C@H](Cc2ccc(C(=O)O)cc2)NC(=O)[C@H](Cc2cccc(C(F)(F)F)c2)NC(=O)[C@H](CC(=O)O)NC(=O)[C@H](Cc2ccc(OCC(=O)O)cc2)NC1=O` [Compound 2926] ({CH2CO}-[Abu]Y(Carboxymethyl)D[Phe(3-CF3)][Phe(4-COOH)][Bip][Phe(4-COOH)][Orn][dL][Dab][Cha][Val(3-OH)]HC[Dab][PEG4]-{NH(CH2)12COOH}; thioether N-14): the IC50 came out at 32.9 nM.

`CC[C@@H]1NC(=O)CSC[C@@H](C(=O)N[C@@H](CCN)C(=O)NCCOCCOCCOCCOCCC(=O)NCCCCCCCCCCCCCCC(=O)O)NC(=O)[C@H](Cc2c[nH]cn2)NC(=O)[C@H](C(C)(C)O)NC(=O)[C@H](CC2CCCCC2)NC(=O)[C@H](CCN)NC(=O)[C@@H](CC(C)C)NC(=O)[C@H](CCCN)NC(=O)[C@H](Cc2ccc(C(=O)O)cc2)NC(=O)[C@H](Cc2ccc(-c3ccccc3)cc2)NC(=O)[C@H](Cc2ccc(C(=O)O)cc2)NC(=O)[C@H](Cc2cccc(C(F)(F)F)c2)NC(=O)[C@H](CC(=O)O)NC(=O)[C@H](Cc2ccc(OCC(=O)O)cc2)NC1=O` [Compound 2927] ({CH2CO}-[Abu]Y(Carboxymethyl)D[Phe(3-CF3)][Phe(4-COOH)][Bip][Phe(4-COOH)][Orn][dL][Dab][Cha][Val(3-OH)]HC[Dab][PEG4]-{NH(CH2)14COOH}; thioether N-14): the IC50 was found to be 244 nM.

Take `CC[C@@H]1NC(=O)CSC[C@@H](C(=O)N[C@@H](CCN)C(=O)NCCCCCCCCCCCCC(=O)O)NC(=O)[C@H](Cc2c[nH]cn2)NC(=O)[C@H](C(C)(C)O)NC(=O)[C@H](CC2CCCCC2)NC(=O)[C@H](CCN)NC(=O)[C@@H](CC(C)C)NC(=O)[C@H](CCCN)NC(=O)[C@H](Cc2ccc(C(=O)O)cc2)NC(=O)[C@H](Cc2ccc(-c3ccccc3)cc2)NC(=O)[C@H](Cc2ccc(C(=O)O)cc2)NC(=O)[C@H](Cc2cccc(C(F)(F)F)c2)NC(=O)[C@H](CC(=O)O)NC(=O)[C@H](Cc2ccc(OCC(=O)O)cc2)NC1=O` [Compound 2928] ({CH2CO}-[Abu]Y(Carboxymethyl)D[Phe(3-CF3)][Phe(4-COOH)][Bip][Phe(4-COOH)][Orn][dL][Dab][Cha][Val(3-OH)]HC[Dab]-{NH(CH2)12COOH}; thioether N-14): the IC50 was found to be 44.8 nM.

Take `CC[C@@H]1NC(=O)CSC[C@@H](C(=O)N[C@@H](CCN)C(=O)NCCCCCCCCCCCCCCC(=O)O)NC(=O)[C@H](Cc2c[nH]cn2)NC(=O)[C@H](C(C)(C)O)NC(=O)[C@H](CC2CCCCC2)NC(=O)[C@H](CCN)NC(=O)[C@@H](CC(C)C)NC(=O)[C@H](CCCN)NC(=O)[C@H](Cc2ccc(C(=O)O)cc2)NC(=O)[C@H](Cc2ccc(-c3ccccc3)cc2)NC(=O)[C@H](Cc2ccc(C(=O)O)cc2)NC(=O)[C@H](Cc2cccc(C(F)(F)F)c2)NC(=O)[C@H](CC(=O)O)NC(=O)[C@H](Cc2ccc(OCC(=O)O)cc2)NC1=O` [Compound 2929] ({CH2CO}-[Abu]Y(Carboxymethyl)D[Phe(3-CF3)][Phe(4-COOH)][Bip][Phe(4-COOH)][Orn][dL][Dab][Cha][Val(3-OH)]HC[Dab]-{NH(CH2)14COOH}; thioether N-14): the IC50 was 369 nM.

Regarding `CCC[C@@H]1NC(=O)CSC[C@@H](C(=O)N[C@@H](CCN)C(=O)NCCOCCOCC(=O)N[C@@H](CC(=O)NCCOCCOCC(=O)NCCCCCCCCCCCCC(=O)O)C(=O)O)NC(=O)[C@H](CO)NC(=O)[C@H](C(C)(C)O)NC(=O)[C@H](CC2CCCCC2)NC(=O)[C@H](CCN)NC(=O)[C@@H](CC(C)C)NC(=O)[C@H](CCCN)NC(=O)[C@H](Cc2ccc(C(=O)O)cc2)NC(=O)[C@H](Cc2ccc(-c3ccccc3)cc2)NC(=O)[C@H](Cc2ccc(C(=O)O)cc2)NC(=O)[C@H](Cc2cccc(C(F)(F)F)c2)NC(=O)[C@H](CC(=O)O)NC(=O)[C@H](Cc2ccc(OCC(=O)O)cc2)NC1=O` [Compound 2931] ({CH2CO}-[Nva]Y(Carboxymethyl)D[Phe(3-CF3)][Phe(4-COOH)][Bip][Phe(4-COOH)][Orn][dL][Dab][Cha][Val(3-OH)]SC[Dab][AEEA][βAsp][AEEA]-{NH(CH2)12COOH}; thioether N-14), the IC50 came to 26.3 nM.

For the compound `CC[C@@H]1NC(=O)CSC[C@@H](C(=O)N[C@@H](CCN)C(=O)NCCOCCOCC(=O)N[C@@H](CCC(=O)NCCOCCOCC(=O)NCCCCCCCCCCCCC(=O)O)C(=O)O)NC(=O)[C@H](CO)NC(=O)[C@H](C(C)(C)O)NC(=O)[C@H](CC2CCCCC2)NC(=O)[C@H](CCN)NC(=O)[C@@H](CC(C)C)NC(=O)[C@H](CCCN)NC(=O)[C@H](Cc2ccc(C(=O)O)cc2)NC(=O)[C@H](Cc2ccc(-c3ccccc3)cc2)NC(=O)[C@H](Cc2ccc(C(=O)O)cc2)NC(=O)[C@H](Cc2cccc(C(F)(F)F)c2)NC(=O)[C@H](CC(=O)O)NC(=O)[C@H](Cc2ccc(OCC(=O)O)cc2)NC1=O` [Compound 2932] ({CH2CO}-[Abu]Y(Carboxymethyl)D[Phe(3-CF3)][Phe(4-COOH)][Bip][Phe(4-COOH)][Orn][dL][Dab][Cha][Val(3-OH)]SC[Dab][AEEA][γGlu][AEEA]-{NH(CH2)12COOH}; thioether N-14), the IC50 was determined as 33 nM.

As to `CC[C@@H]1NC(=O)CSC[C@@H](C(=O)N[C@@H](CCN)C(=O)NCCOCCOCC(=O)N[C@@H](CC(=O)NCCOCCOCC(=O)NCCCCCCCCCCCCC(=O)O)C(=O)O)NC(=O)[C@H](CO)NC(=O)[C@H](C(C)(C)O)NC(=O)[C@H](CC2CCCCC2)NC(=O)[C@H](CCN)NC(=O)[C@@H](CC(C)C)NC(=O)[C@H](CCCN)NC(=O)[C@H](Cc2ccc(C(=O)O)cc2)NC(=O)[C@H](Cc2ccc(-c3ccccc3)cc2)NC(=O)[C@H](Cc2ccc(C(=O)O)cc2)NC(=O)[C@H](Cc2cccc(C(F)(F)F)c2)NC(=O)[C@H](CC(=O)O)NC(=O)[C@H](Cc2ccc(OCC(=O)O)cc2)NC1=O` [Compound 2933] ({CH2CO}-[Abu]Y(Carboxymethyl)D[Phe(3-CF3)][Phe(4-COOH)][Bip][Phe(4-COOH)][Orn][dL][Dab][Cha][Val(3-OH)]SC[Dab][AEEA][βAsp][AEEA]-{NH(CH2)12COOH}; thioether N-14), the IC50 is 26.5 nM.

Take `CC(C)C[C@H]1NC(=O)[C@H](CCCN)NC(=O)[C@H](Cc2ccc(C(=O)O)cc2)NC(=O)[C@H](Cc2ccc(-c3ccccc3)cc2)NC(=O)[C@H](Cc2ccc(C(=O)O)cc2)NC(=O)[C@H](Cc2cccc(C(F)(F)F)c2)NC(=O)[C@H](CC(=O)O)NC(=O)[C@H](Cc2ccc(OCC(=O)O)cc2)NC(=O)[C@H](C)NC(=O)CSC[C@@H](C(=O)N[C@@H](CCN)C(=O)NCCOCCOCC(=O)N[C@@H](CCC(=O)NCCOCCOCC(=O)NCCCCCCCCCCCCC(=O)O)C(=O)O)NC(=O)[C@H](CO)NC(=O)[C@H](C(C)(C)O)NC(=O)[C@H](CC2CCCCC2)NC(=O)[C@H](CCN)NC1=O` [Compound 2934] ({CH2CO}-AY(Carboxymethyl)D[Phe(3-CF3)][Phe(4-COOH)][Bip][Phe(4-COOH)][Orn][dL][Dab][Cha][Val(3-OH)]SC[Dab][AEEA][γGlu][AEEA]-{NH(CH2)12COOH}; thioether N-14): the IC50 stood at 39 nM.

Consider `CC(C)C[C@H]1NC(=O)[C@H](CCCN)NC(=O)[C@H](Cc2ccc(C(=O)O)cc2)NC(=O)[C@H](Cc2ccc(-c3ccccc3)cc2)NC(=O)[C@H](Cc2ccc(C(=O)O)cc2)NC(=O)[C@H](Cc2cccc(C(F)(F)F)c2)NC(=O)[C@H](CC(=O)O)NC(=O)[C@H](Cc2ccc(OCC(=O)O)cc2)NC(=O)[C@H](C)NC(=O)CSC[C@@H](C(=O)N[C@@H](CCN)C(=O)NCCOCCOCC(=O)N[C@@H](CC(=O)NCCOCCOCC(=O)NCCCCCCCCCCCCC(=O)O)C(=O)O)NC(=O)[C@H](CO)NC(=O)[C@H](C(C)(C)O)NC(=O)[C@H](CC2CCCCC2)NC(=O)[C@H](CCN)NC1=O` [Compound 2935] ({CH2CO}-AY(Carboxymethyl)D[Phe(3-CF3)][Phe(4-COOH)][Bip][Phe(4-COOH)][Orn][dL][Dab][Cha][Val(3-OH)]SC[Dab][AEEA][βAsp][AEEA]-{NH(CH2)12COOH}; thioether N-14), for which the IC50 came to 42.4 nM.

Take `CC(C)C[C@@H]1NC(=O)CSC[C@@H](C(=O)N[C@@H](CCN)C(=O)NCCOCCOCC(=O)N[C@@H](CC(=O)NCCOCCOCC(=O)NCCCCCCCCCCCCC(=O)O)C(=O)O)NC(=O)[C@H](CO)NC(=O)[C@H](C(C)(C)O)NC(=O)[C@H](CC2CCCCC2)NC(=O)[C@H](CCN)NC(=O)[C@@H](CC(C)C)NC(=O)[C@H](CCCN)NC(=O)[C@H](Cc2ccc(C(=O)O)cc2)NC(=O)[C@H](Cc2ccc(-c3ccccc3)cc2)NC(=O)[C@H](Cc2ccc(C(=O)O)cc2)NC(=O)[C@H](Cc2cccc(C(F)(F)F)c2)NC(=O)[C@H](CC(=O)O)NC(=O)[C@H](Cc2ccc(OCC(=O)O)cc2)NC1=O` [Compound 2937] ({CH2CO}-LY(Carboxymethyl)D[Phe(3-CF3)][Phe(4-COOH)][Bip][Phe(4-COOH)][Orn][dL][Dab][Cha][Val(3-OH)]SC[Dab][AEEA][βAsp][AEEA]-{NH(CH2)12COOH}; thioether N-14): the IC50 was 11.7 nM.

The record behind these values is patent publication US20260022142A1, “MACROCYCLIC IMMUNOMODULATORS” (Bristol-Myers Squibb Company, priority 2022, published 2026).
